From US20220362386A1, “LIQUID COMPOSITIONS COMPRISING A LEVODOPA AMINO ACID CONJUGATE AND USES THEREOF” (NeuroDerm, Ltd., priority 2019, published 2022)
Structures can show the parent of a compound that is named as a salt. Where two headings read alike, the source gives them in different places. Non-standard residues stand in square brackets, D forms with d. Residues, ends and D or L forms follow the SMILES beside them. Dopa = N[C@@H](Cc1ccc(O)c(O)c1)C(=O)O

Assays:
[1] = In-vitro metabolism of LDAA compounds using liver microsomes; type: in vitro ADME, human; conditions: for half-life at 0.1 μM / microsomal CLint at 0.1 μM: both sexes, human, pooled human liver microsomes; for half-life at 0.1 μM: pH 7.4, 1.0E−07M, 0.1 mg/mL microsomal protein; for microsomal CLint at 0.1 μM: pH 7.4, calculated from the half-life; for microsomal CLint at 0.1 μM / % Compound Remaining 1st / % Compound Remaining 2nd / % Compound Remaining Mean: 1.0E−07M
Method: The stability of test compounds in pooled human liver microsomes was determined on 96-well plates, wherein the test compounds were quantified at five time points by HPLC-MS/MS analysis. The assay matrix included mixed gender and a pool of 50 human liver microsomes, wherein the final microsomal protein concentration was 0.1 mg/mL. The test concentration was 0.1 μM with 0.01% DMSO, 0.25% acetonitrile and 0.25% methanol.
Each test compound was pre-incubated for five minutes with pooled liver microsomes in phosphate buffer (pH 7.4) in a 37° C. shaking water-bath. The reaction was initiated by adding a nicotinamide adenine dinucleotide phosphate (NADPH)-generating system and incubating for 0, 15, 30, 45, and 60 min. The reaction was stopped by transferring the incubation mixture to acetonitrile/methanol. Samples were then mixed and centrifuged, wherein the supernatants were used for HPLC-MS/MS analysis.
In each assay the four reference compounds propranolol, imipramine, verapamil and terfenadine were tested, wherein the propranolol and the imipramine are known to be relatively stable, while the verapamil and the terfenadine are known to be readily metabolized in human liver microsomes.
All samples were analyzed by HPLC-MS/MS using selected reaction monitoring. The HPLC system consisted of a binary LC pump with autosampler, a C-18 column, and a gradient. The conditions were adjusted when necessary.
Peak areas corresponding to the test compound were recorded. The amount of each compound remaining was calculated by comparing the peak area at each time point to time zero. The half-life is calculated from the slope of the initial linear range of the logarithmic curve of compound remaining (%) vs. time, assuming first order kinetics. In addition, the intrinsic clearance (Clint) was calculated from the half-life using the following equation:
Clint(μL/min/mg protein)=0.693/(t1/2×protein concentration)
The results of the in-vitro human liver microsome metabolism tests of various LDAA compounds (10^−7M), in their TFA salt forms, are provided in FIG. 1 and in Table 17, which presents the % of the compound remaining at times 0, 15, 30, 45 and 60 minutes, two half-life measurements and the Clint, calculated as detailed above.

[2] = Protein binding, solid phase extraction (SPE) method; type: in vitro ADME, human; conditions: human, human plasma, 1.0E−05M, SPE sample preparation
Method: (§1) A solid phase extraction (SPE) method was used to prepare samples for several compounds in the plasma protein binding assay. The following SPE protocols were followed:
(§2) Sorbent: Waters Oasis MCX 96—well MicroElution Plate—Cat #186001830BA Sample: 200 μL of plasma spiked at 10 μM with test compound. Sample was diluted 1:1 with 4% phosphoric acid in water and mixed for 15 minutes 1) Place Oasis plate on vacuum manifold and set vacuum to 5″ Hg; 2) Condition with 200 μL methanol; 3) Equilibrate with 200 μL water; 4) Load dilute plasma sample; 5) Wash with 200 μL 2% formic acid in water; 6) Wash with 400 μL methanol; and 7) Elute with 100 μL 5% NH4OH in methanol.
as §2, with “MAX 96-well” for “MCX 96—well”, “plate—Cat #186001829” for “Plate—Cat #186001830BA”, “5% NH4OH” for “2% formic acid”, “2% formic acid” for “5% NH4OH”

human plasma = test: as above; type: in vitro ADME; conditions: 1.0E−05M; SPE sample preparation
Method: as §1, §2
as §2, with “MAX 96-well” for “MCX 96—well”, “plate—Cat #186001829” for “Plate—Cat #186001830BA”, “5% NH4OH” for “2% formic acid”, “2% formic acid” for “5% NH4OH”

in vitro = conditions: human
Method: Caco-2 cells are human intestinal epithelial cells derived from a colorectal adenocarcinoma.
The assays are performed in both the apical to basolateral (A-B) and the B-A direction. The test compound is prepared at 10 μM in HBSS-HEPES (pH 7.4) with a final DMSO concentration of 1%. The working solution is centrifuged, and the supernatant is added to the donor side. The assay plate is incubated at 37° C. with gentle shaking for 60 min or 40 min for the A-B or B-A assay, respectively. For Pgp substrate assessment, the assays are run with and without 100 μM verapamil on both the A and B sides. For BCRP substrate assessment, the assays are run with and without 10 μM Ko143 on both the A and B sides. For MRP2 substrate assessment, the assays are run with and without 100 μM MK571 on both the A and B sides. Samples are aliquoted from the donor side at time zero and the end point, and from the receiver side at the end point.
Propranolol (highly permeable), labetalol (moderately permeable), ranitidine (poorly permeable), and colchicine (P-glycoprotein substrate), estrone-3-sulfate (BCRP substrate), or CDCF (MRP2 substrate) are included in each assay.
Samples are analyzed by HPLC-MS/MS using selected reaction monitoring. The HPLC system consists of a binary LC pump with an autosampler, a C-18 column, and a gradient. Conditions may be adjusted when necessary.
Fluorescein permeability is assessed in the A-B direction at pH 7.4 on both sides after the permeability assay with the test compound. The cell monolayer with a fluorescein permeability of less than 1.5×10−6 cm/s is considered intact.
The apparent permeability coefficient (Papp) of the test compound and its recovery are calculated as follows: […]
A is the surface area of the cell monolayer (0.11 cm^2). C is concentration of the test compound, expressed as peak area. D denotes donor and R is receiver. 0, mid, and end denote time zero, mid-point, and end of the incubation. Δt is the incubation time. V is the volume of the donor or receiver.
The permeability capabilities of the several LDAA compounds, in their TFA salt form, were determined using the Caco-2 B-A method.

[3] = read-out: Half-Life (minute) 1st
[4] = read-out: Half-Life (minute) 2nd
[5] = read-out: Half-Life (minute) Mean
[6] = Caco-2, pH 7.4, Percent Recovery 1st
[7] = Caco-2, pH 7.4, Percent Recovery 2nd
[8] = Caco-2, pH 7.4, Percent Recovery Mean
[9] = Caco-2, pH 7.4, Permeability 1st
[10] = Caco-2, pH 7.4, Permeability 2nd
[11] = Caco-2, pH 7.4, Permeability Mean

| SMILES | half-life at 0.1 μM [1, 3] | half-life at 0.1 μM [1, 4] | half-life at 0.1 μM [1, 5] | microsomal CLint at 0.1 μM [1] | % Compound Remaining 1st ([1]; incubation time 0 minutes) | % Compound Remaining 2nd ([1]; incubation time 0 minutes) | % Compound Remaining Mean ([1]; incubation time 0 minutes) | % Compound Remaining 1st ([1]; incubation time 15 minutes) | % Compound Remaining 2nd ([1]; incubation time 15 minutes) | % Compound Remaining Mean ([1]; incubation time 15 minutes) | % Compound Remaining 1st ([1]; incubation time 30 minutes) | % Compound Remaining 2nd ([1]; incubation time 30 minutes) | % Compound Remaining Mean ([1]; incubation time 30 minutes) | % Compound Remaining 1st ([1]; incubation time 45 minutes) | % Compound Remaining 2nd ([1]; incubation time 45 minutes) | % Compound Remaining Mean ([1]; incubation time 45 minutes) | % Compound Remaining 1st ([1]; incubation time 60 minutes) | % Compound Remaining 2nd ([1]; incubation time 60 minutes) | % Compound Remaining Mean ([1]; incubation time 60 minutes) | recovery at 10 μM ([2]; read-out: % Recovery 1st) | further results |
| --- | --- | --- | --- | --- | --- | --- | --- | --- | --- | --- | --- | --- | --- | --- | --- | --- | --- | --- | --- | --- | --- |
| N[C@@H](CSC[C@H](NC(=O)[C@@H](N)Cc1ccc(O)c(O)c1)C(=O)O)C(=O)O (single isomer, unassigned; peak 2) [LD-LA2 TFA salt, Levodopa Lanthionine Peak 2 TFA Salt] | 75.7 min | 110 min | > 60 min | < 116 µL/min/mg | 100% | 100% | 100% | 122.9% | 103.5% | 113% | 105.6% | 94.5% | 100% | 97.5% | 102% | 100% | 56.5% | 62.9% | 60% | 39% | recovery at 10 μM ([2]; read-out: % Recovery 2nd): 46%; recovery at 10 μM ([2]; read-out: % Recovery Mean): 43%; % Protein Bound 1st (human plasma): 18.7%; % Protein Bound Mean (human plasma): 18.7%; recovery at 40 min, 10 μM (in vitro; [6]): 79%; recovery at 40 min, 10 μM (in vitro; [7]): 69%; recovery at 40 min, 10 μM (in vitro; [8]): 74%; Papp B→A at 40 min, 10 μM (in vitro; [9]): 13 ×10⁻⁶ cm/s; Papp B→A at 40 min, 10 μM (in vitro; [10]): 13.6 ×10⁻⁶ cm/s; Papp B→A at 40 min, 10 μM (in vitro; [11]): 13.3 ×10⁻⁶ cm/s |
| N[C@@H](Cc1ccc(O)c(O)c1)C(=O)O [LD (control), L-3,4-dihydroxyphenylalanine, reference compound] | 116 min | 131 min | > 60 min | < 116 µL/min/mg | 100% | 100% | 100% | 102.5% | 97.8% | 100% | 93.2% | 89.3% | 91% | 80.1% | 78% | 79% | 72.3% | 75.2% | 74% | 59% | recovery at 10 μM ([2]; read-out: % Recovery 2nd): 78%; recovery at 10 μM ([2]; read-out: % Recovery Mean): 68%; % Protein Bound 1st (human plasma): 30.4%; % Protein Bound 2nd (human plasma): 20.2%; % Protein Bound Mean (human plasma): 25%; recovery at 40 min, 10 μM (in vitro; [6]): 101%; recovery at 40 min, 10 μM (in vitro; [7]): 92%; recovery at 40 min, 10 μM (in vitro; [8]): 96%; Papp B→A at 40 min, 10 μM (in vitro; [9]): 0.38 ×10⁻⁶ cm/s; Papp B→A at 40 min, 10 μM (in vitro; [10]): 0.41 ×10⁻⁶ cm/s; Papp B→A at 40 min, 10 μM (in vitro; [11]): < 0.4 ×10⁻⁶ cm/s |
| N=C(N)NCCC[C@H](NC(=O)[C@@H](N)Cc1ccc(O)c(O)c1)C(=O)O [LD-Arg TFA salt, Levodopa Arginine TFA Salt] | 42.9 min | 40.5 min | 42 min | 166 µL/min/mg | 100% | 100% | 100% | 109.7% | 111.8% | 111% | 84.2% | 90.9% | 88% | 70% | {52.4} % | 70% | 37.3% | 38.6% | 38% | 79% | recovery at 10 μM ([2]; read-out: % Recovery 2nd): 79%; recovery at 10 μM ([2]; read-out: % Recovery Mean): 79%; % Protein Bound 1st (human plasma): 91.5%; % Protein Bound 2nd (human plasma): 91.2%; % Protein Bound Mean (human plasma): 91%; recovery at 40 min, 10 μM (in vitro; [6]): 82%; recovery at 40 min, 10 μM (in vitro; [7]): 89%; recovery at 40 min, 10 μM (in vitro; [8]): 85%; Papp B→A at 40 min, 10 μM (in vitro; [9]): 0.03 ×10⁻⁶ cm/s; Papp B→A at 40 min, 10 μM (in vitro; [10]): 0.02 ×10⁻⁶ cm/s; Papp B→A at 40 min, 10 μM (in vitro; [11]): < 0.03 ×10⁻⁶ cm/s |
| NCCCC[C@H](NC(=O)[C@@H](N)Cc1ccc(O)c(O)c1)C(=O)O [LD-Lys TFA salt, Levodopa Lysine TFA Salt] (H-[Dopa]-Lys-OH) | 91.3 min | 58.3 min | > 60 min | < 116 µL/min/mg | 100% | 100% | 100% | {123.5% | 96.7% | 97% | 64.2% | 83.5% | 74% | 76.7% | {43.7} % | 77% | 59.5% | 50.4% | 55% | 79% | recovery at 10 μM ([2]; read-out: % Recovery 2nd): 63%; recovery at 10 μM ([2]; read-out: % Recovery Mean): 71%; % Protein Bound 1st (human plasma): 0.3%; % Protein Bound 2nd (human plasma): 18.7%; % Protein Bound Mean (human plasma): 10%; recovery at 40 min, 10 μM (in vitro; [6]): 79%; recovery at 40 min, 10 μM (in vitro; [7]): 86%; recovery at 40 min, 10 μM (in vitro; [8]): 82%; Papp B→A at 40 min, 10 μM (in vitro; [9]): 0.03 ×10⁻⁶ cm/s; Papp B→A at 40 min, 10 μM (in vitro; [10]): 0.03 ×10⁻⁶ cm/s; Papp B→A at 40 min, 10 μM (in vitro; [11]): < 0.03 ×10⁻⁶ cm/s |
